{"source": "patent US7811609B2", "about": "“Use of metal compounds to treat gastrointestinal infections” (priority 2000, dated 2010)", "key": {"Helicobacter pylori": {"system": "Helicobacter pylori", "experiment": "MIC against Helicobacter pylori by two fold serial dilution in growth medium", "type": "cell-based", "details": "for effect on the MIC of cobalt against H. pylori: weight ratio of 1:5 (cobalt:cysteine and/or methionine); for Mean ratio pH 4:pH 7, first value: Strain 1 (Chloride: against first pH 7 value); for MIC, Strain 1 (pH 7): pH 7 (first value where two are given); for Mean ratio pH 4:pH 7, second value: Strain 2 (Chloride: Strain 1 against second pH 7 value); for Average Selectivity Ratio: (Sum of MIC values against all bacteria except H. pylori ÷ No. of MIC values) ÷ MIC value for H. pylori", "experimental": "Solutions of metal salts were prepared by dilution of the metal salt, optionally together with the ligand, in ultra-high-purity water. The pH values were adjusted to 7 with concentrated sodium hydroxide. The solutions were γ irradiated for 20 to 30 minutes for sterilisation, and then diluted ten fold in the bacterial growth medium to be used.\nA gradient of concentration was obtained by two fold serial dilutions of the medium. The concentrations of metals were analysed by inductively coupled plasma spectrometry. Each dilution was inoculated with the different bacteria to be tested, by multi-point inoculating on the agar media, or suspending in the broth media.\nThe presence or absence of bacterial growth was reported within the concentration gradient and the minimum concentration of complex in the medium that inhibits totally the bacterial growth (MIC) was determined. The growth on an agar plate was detected by the presence of colonies, and by turbidity in the broth media. The bacteria were identified by the Gram morphology test. Helicobacter pylori growth was also confirmed by biochemical test on the catalase, urease and oxidase activity."}, "Enterococcus faecalis": {"system": "Enterococcus faecalis", "experiment": "MIC against Enterococcus faecalis", "type": "cell-based", "details": "Table 4"}, "Staphylococcus aureus": {"system": "Staphylococcus aureus", "experiment": "MIC against Staphylococcus aureus", "type": "cell-based", "details": "Table 4"}, "Pseudomonas aeruginosa [1]": {"system": "Pseudomonas aeruginosa", "details": "extrapolated from survival rates; protein broth then phosphate-buffered saline; Zhao et al 1998; cited from earlier work"}, "E. coli": {"system": "E. coli", "details": "extrapolated from survival rates; protein broth then phosphate-buffered saline; Zhao et al 1998; cited from earlier work"}, "Pseudomonas aeruginosa [2]": {"system": "Pseudomonas aeruginosa", "experiment": "MIC against Pseudomonas aeruginosa", "type": "cell-based", "details": "Table 4"}, "Echerichia coli": {"system": "Echerichia coli", "experiment": "MIC against Echerichia coli", "type": "cell-based", "details": "Table 4"}, "Klebsiella": {"system": "Klebsiella", "experiment": "MIC against Klebsiella", "type": "cell-based", "details": "Table 4"}, "[3]": {"system": "Staphylococcus (aureus or Oxford Staph)", "details": "extrapolated from survival rates; protein broth then phosphate-buffered saline; Zhao et al 1998; cited from earlier work"}, "[4]": {"details": "STH broth, NCTC 11637 and seven clinical isolates"}, "[5]": {"details": "pH 4-7: pH of the media changes during the experiment from acidic start"}}, "note": "Where two headings read alike, the source gives them in different places."}
{"molecule": "CSCC[C@H](N)C(=O)O", "note": "[methionine, reference compound]", "values": [{"measurement": "effect on the MIC of cobalt against H. pylori", "setting": "Helicobacter pylori", "result": "not to affect the MIC of cobalt against H. pylori"}]}
{"molecule": "[O]=[Mo](=[O])=[O]", "note": "[Mo^6+ (molybdenum oxide), molybdenum oxide, reference compound]", "values": [{"measurement": "MIC", "setting": "Helicobacter pylori; [4]", "result": ">32", "unit": "µg/mL"}]}
{"molecule": "Vitamin B12 [reference compound]", "values": [{"measurement": "activity against H. pylori", "setting": "Helicobacter pylori; strongly bound cobalt complex", "result": "greatly reduced activity"}]}
{"molecule": "O=C([O-])[O-].[Co+2]", "note": "[Co carbonate]", "values": [{"measurement": "Mean ratio pH 4:pH 7, first value", "setting": "Helicobacter pylori", "result": 0.048}, {"measurement": "MIC, Strain 1 (pH 4)", "setting": "Helicobacter pylori", "result": 0.09}, {"measurement": "MIC, Strain 1 (pH 7)", "setting": "Helicobacter pylori", "result": 1.09}, {"measurement": "Mean ratio pH 4:pH 7, second value", "setting": "Helicobacter pylori", "result": 0.018}, {"measurement": "MIC, Strain 2 (pH 4)", "setting": "Helicobacter pylori", "result": "<0.02"}, {"measurement": "MIC, Strain 2 (pH 7)", "setting": "Helicobacter pylori; pH 7", "result": 1.09}, {"measurement": "MIC, pH 4-7", "setting": "Helicobacter pylori; [5]", "result": "0.03-0.125 mg/l"}, {"measurement": "MIC, pH 7", "setting": "Helicobacter pylori; pH 7", "result": "0.125-1 mg/l"}]}
{"molecule": "Br", "note": "[Co bromide]", "values": [{"measurement": "MIC", "setting": "Helicobacter pylori; Helicobacter pylori, pH 7, read-out: MIC, pH 7", "result": "1 to 4", "unit": "µg/mL"}, {"measurement": "MIC", "setting": "Helicobacter pylori; Helicobacter pylori, pH 4-7: pH of the media changes during the experiment from acidic start, read-out: MIC, pH 4-7", "result": "0.06 to 0.125", "unit": "µg/mL"}, {"measurement": "Mean ratio pH 4:pH 7, first value", "setting": "Helicobacter pylori", "result": 0.036}, {"measurement": "MIC, Strain 1 (pH 4)", "setting": "Helicobacter pylori", "result": "<0.04"}, {"measurement": "MIC, Strain 1 (pH 7)", "setting": "Helicobacter pylori", "result": 1.12}, {"measurement": "Mean ratio pH 4:pH 7, second value", "setting": "Helicobacter pylori", "result": 0.02}, {"measurement": "MIC, Strain 2 (pH 4)", "setting": "Helicobacter pylori", "result": 0.09}, {"measurement": "MIC, Strain 2 (pH 7)", "setting": "Helicobacter pylori; pH 7", "result": 4.49}]}
{"molecule": "[Cl-].[Cl-].[Zn+2]", "note": "[Zn^2+]", "values": [{"measurement": "MIC, Ent faecalis", "setting": "Enterococcus faecalis", "result": "> 32", "unit": "µg/mL"}, {"measurement": "MIC, Staphylococcus (aureus or Oxford Staph)", "setting": "Staphylococcus aureus", "result": "> 32", "unit": "µg/mL"}, {"measurement": "MIC, Pseudomonas aeruginosa (footnote a)", "setting": "Pseudomonas aeruginosa [1]", "result": "1.7^a"}, {"measurement": "MIC, E. coli (footnote a)", "setting": "E. coli", "result": "17^a"}, {"measurement": "MIC, Pseudomonas aeruginosa", "setting": "Pseudomonas aeruginosa [2]", "result": "> 32", "unit": "µg/mL"}, {"measurement": "MIC, E. coli", "setting": "Echerichia coli", "result": "> 32", "unit": "µg/mL"}, {"measurement": "Average Selectivity Ratio", "setting": "Helicobacter pylori", "result": 0.76}, {"measurement": "MIC", "setting": "Helicobacter pylori; [4]", "result": ">32", "unit": "µg/mL"}, {"measurement": "MIC, H. pylori", "setting": "Helicobacter pylori; Table 4", "result": ">32/32"}, {"measurement": "MIC, H. pylori, first of two values", "setting": "Helicobacter pylori; Table 4", "result": ">32/32"}, {"measurement": "MIC, Klebsiella", "setting": "Klebsiella", "result": "> 32", "unit": "µg/mL"}, {"measurement": "MIC, Staphylococcus (aureus or Oxford Staph) (footnote a)", "setting": "[3]", "result": "17^a"}]}
{"molecule": "[Cl][Cu][Cl]", "note": "[Cu^2+]", "values": [{"measurement": "MIC, Ent faecalis", "setting": "Enterococcus faecalis", "result": "> 32", "unit": "µg/mL"}, {"measurement": "MIC, Staphylococcus (aureus or Oxford Staph)", "setting": "Staphylococcus aureus", "result": "> 32", "unit": "µg/mL"}, {"measurement": "MIC, Pseudomonas aeruginosa (footnote a)", "setting": "Pseudomonas aeruginosa [1]", "result": "1.75^a"}, {"measurement": "MIC, E. coli (footnote a)", "setting": "E. coli", "result": "17.15^a"}, {"measurement": "MIC, Pseudomonas aeruginosa", "setting": "Pseudomonas aeruginosa [2]", "result": "> 32", "unit": "µg/mL"}, {"measurement": "MIC, E. coli", "setting": "Echerichia coli", "result": "> 32", "unit": "µg/mL"}, {"measurement": "Average Selectivity Ratio", "setting": "Helicobacter pylori", "result": 1.02}, {"measurement": "MIC", "setting": "Helicobacter pylori; [4]", "result": "16 to 32", "unit": "µg/mL"}, {"measurement": "MIC, H. pylori", "setting": "Helicobacter pylori; Table 4", "result": 32}, {"measurement": "MIC, H. pylori, first of two values", "setting": "Helicobacter pylori; Table 4", "result": 16}, {"measurement": "MIC, H. pylori", "setting": "Helicobacter pylori; Table 4, main value", "result": 24, "unit": "µg/mL"}, {"measurement": "MIC, Klebsiella", "setting": "Klebsiella", "result": "> 32", "unit": "µg/mL"}, {"measurement": "MIC, Staphylococcus (aureus or Oxford Staph) (footnote a)", "setting": "[3]", "result": "17.15^a"}]}
{"molecule": "CC(=O)[O-].CC(=O)[O-].[Co+2]", "note": "[Co acetate]", "values": [{"measurement": "Mean ratio pH 4:pH 7, first value", "setting": "Helicobacter pylori", "result": 0.054}, {"measurement": "MIC, Strain 1 (pH 4)", "setting": "Helicobacter pylori", "result": 0.11}, {"measurement": "MIC, Strain 1 (pH 7)", "setting": "Helicobacter pylori", "result": 2.03}, {"measurement": "Mean ratio pH 4:pH 7, second value", "setting": "Helicobacter pylori", "result": 0.11}, {"measurement": "MIC, Strain 2 (pH 4)", "setting": "Helicobacter pylori", "result": 0.11}, {"measurement": "MIC, Strain 2 (pH 7)", "setting": "Helicobacter pylori; pH 7", "result": 1.01}, {"measurement": "MIC, pH 4-7", "setting": "Helicobacter pylori; [5]", "result": 0.125, "unit": "mg/l"}, {"measurement": "MIC, pH 7", "setting": "Helicobacter pylori; pH 7", "result": "0.5-2 mg/l"}]}
{"molecule": "O=S(=O)([O-])[O-].[O]=[V+2]", "note": "[V^4+ (vanadyl sulfate), vanadyl sulfate, reference compound]", "values": [{"measurement": "MIC", "setting": "Helicobacter pylori; [4]", "result": ">32", "unit": "µg/mL"}]}
{"molecule": "N[C@@H](CS)C(=O)O", "note": "[cysteine, reference compound]", "values": [{"measurement": "effect on the MIC of cobalt against H. pylori", "setting": "Helicobacter pylori", "result": "not to affect the MIC of cobalt against H. pylori"}]}
{"molecule": "O=[N+]([O-])[O-].O=[N+]([O-])[O-].O=[N+]([O-])[O-].[Bi+3]", "note": "[Bi^3+ (bismuth nitrate), bismuth nitrate, reference compound]", "values": [{"measurement": "MIC", "setting": "Helicobacter pylori; [4]", "result": "4 to 8", "unit": "µg/mL"}, {"measurement": "action against H. pylori (in words)", "setting": "Helicobacter pylori; Table 2 metals compared with cobalt (II)", "result": "active, but only at much higher levels than cobalt (II)"}]}
